# Where a SMILES comes first, the peptide text is derived from it. Bridges are numbered along the chain shown (N, C = ends). [ ]: non-standard residue; d: D form. The star is where a group is joined. Benzoyl(3-Ph) = O=C(c1cccc(-c2ccccc2)c1)*; Benzoyl(4-hexyl) = CCCCCCc1ccc(C(=O)*)cc1; X2 = CCCCCOc1cccc(C(=O)*)c1; dOrn = NCCC[C@@H](N)C(=O)O; Octanoyl = CCCCCCCC(=O)*; Orn = NCCC[C@H](N)C(=O)O; Dab = NCC[C@H](N)C(=O)O
# Columns and labels:
# [1] = system: A. baumannii ATCC 19606; assay: microbe, parasite or virus in culture; settings: ATCC 19606, 18 h
# Method: (§1) All compounds synthesised in this study were assessed for their minimum inhibitory concentrations (MIC, mg/L) by broth microdilution assay against five antibiotic-sensitive and resistant ATCC reference strains covering the Gram-negative ESKAPE pathogens (Escherichia coli, Klebsiella pneumoniae, A. baumannii, and P. aeruginosa) (Table 1, Table 2 and Table 3). Staphylococcus aureus was also included as a representative Gram-positive bacterial strain. […] Polymyxin B 1, colistin 2, vancomycin and gentamicin were used as positive inhibitor comparator compounds. Compounds were counter-screened against human proximal tubular epithelial cells (HK-2), using LDH release as a general indicator of cellular toxicity.
# [2] = system: E. coli ATCC 25922; assay: microbe, parasite or virus in culture; settings: ATCC 25922, 18 h
# Method: as §1
# [3] = system: K. pneumoniae ATCC 13833; assay: microbe, parasite or virus in culture; settings: ATCC 13833, 18 h
# Method: as §1
# [4] = system: K. pneumoniae ATCC 700603; assay: microbe, parasite or virus in culture; settings: ATCC 700603, 18 h
# Method: as §1
# [5] = system: K. pneumoniae BAA 2146; assay: microbe, parasite or virus in culture; settings: BAA 2146, 18 h
# Method: as §1
# [6] = system: P. aeruginosa ATTC 27853; assay: microbe, parasite or virus in culture; settings: ATTC 27853, 18 h
# Method: as §1
# [7] = system: S. aureus ATCC 25923; assay: microbe, parasite or virus in culture; settings: ATCC 25923, 18 h
# Method: as §1
# [8] = in vitro; settings: human
# Method: as §1
# Cytotoxicity to human kidney proximal tubular epithelial cell line, HK-2 (ATCC CRL-2190, sourced from ATCC; Manassas, VA, USA) was determined using the LDH assay as previously described. In brief, HK-2 cells were seeded as 2000 cells/well in black-walled clear bottom 384-well tissue culture treated plates (Corning, catalogue No. 3712) in DMEM/F12 medium (Gibco® 10565-042) containing 10% of Fetal Bovine Serum (FBS, Gibco® 10099-141) and incubated for 24 h at 37 °C, 5% CO2. Compounds were then added into each well with a concentration series from 300 µM to 2.3 µM in 2-fold dilutions. Colistin and polymyxin B were used as controls and tested at a final concentration range of 1 mM to 7.8 µM. The cells were incubated with the compounds for 24 h at 37 °C, 5% CO2. After the incubation, 5 µL of culture medium was added to 45 µL of LDH assay buffer (Biovision, K313-500) and incubated for 30 min at room temperature. The absorbance (ABS) was then read at 450 nm using a Polar Star Omega plate reader. The data was analysed by Prism 6 software (GraphPad Software, La Jolla, CA, USA). Results were calculated using the following equation: cytotoxicity %= (ABSsamples − ABSuntreated/ABS1%Triton X-100 − ABSuntreated) × 100.
Compound,MIC A. baumannii ATCC 19606 [1],MIC E. coli ATCC 25922 [2],MIC K. pneumoniae ATCC 13833 [3],MIC K. pneumoniae ATCC 700603 [4],MIC K. pneumoniae BAA 2146 [5],MIC P. aeruginosa ATTC 27853 [6],MIC S. aureus ATCC 25923 [7],CC50 at 24 h [8]
CC(C)C[C@@H]1NC(=O)[C@@H](Cc2ccccc2)NC(=O)[C@H](CCN)NC(=O)[C@@H](NC(=O)[C@H](CCN)NC(=O)[C@@H](NC(=O)c2cccc(-c3ccccc3)c2)[C@@H](C)O)CCNC(=O)[C@H]([C@@H](C)O)NC(=O)[C@H](CCN)NC(=O)[C@H](CCN)NC1=O [Compound 14] ({Benzoyl(3-Ph)}-T[Dab][Dab][Dab][dF]L[Dab][Dab]T; lactam 3-C),>32 µg/mL,8 µg/mL,>32 µg/mL,32 µg/mL,16 µg/mL,2 µg/mL,>32 µg/mL,182 µM
CCCCCCc1ccc(C(=O)N[C@H](C(=O)N[C@@H](CCN)C(=O)N[C@H]2CCNC(=O)[C@H]([C@@H](C)O)NC(=O)[C@H](CCN)NC(=O)[C@H](CCN)NC(=O)[C@H](CC(C)C)NC(=O)[C@@H](Cc3ccccc3)NC(=O)[C@H](CCN)NC2=O)[C@@H](C)O)cc1 [Compound 12] ({Benzoyl(4-hexyl)}-T[Dab][Dab][Dab][dF]L[Dab][Dab]T; lactam 3-C),32 µg/mL,2 µg/mL,16 µg/mL,4 µg/mL,2 µg/mL,1 µg/mL,8 µg/mL,46 µM
CCCCCCCC(=O)N[C@H](C(=O)N[C@@H](CCN)C(=O)N[C@H]1CCCNC(=O)[C@H]([C@@H](C)O)NC(=O)[C@H](CCN)NC(=O)[C@H](CCN)NC(=O)[C@H](CC(C)C)NC(=O)[C@@H](Cc2ccccc2)NC(=O)[C@H](CCN)NC1=O)[C@@H](C)O [Compound 17] (Octanoyl-T[Dab][Orn][Dab][dF]L[Dab][Dab]T; lactam 3-C),>32 µg/mL,2 µg/mL,32 µg/mL,16 µg/mL,16 µg/mL,2 µg/mL,>32 µg/mL,88 µM
CCCCCOc1cccc(C(=O)N[C@H](C(=O)N[C@@H](CCN)C(=O)N[C@H]2CCNC(=O)[C@H]([C@@H](C)O)NC(=O)[C@H](CCN)NC(=O)[C@H](CCN)NC(=O)[C@H](CC(C)C)NC(=O)[C@@H](Cc3ccccc3)NC(=O)[C@H](CCN)NC2=O)[C@@H](C)O)c1 [Compound 11] (X2-T[Dab][Dab][Dab][dF]L[Dab][Dab]T; lactam 3-C),>32 µg/mL,8 µg/mL,>32 µg/mL,32 µg/mL,8 µg/mL,2 µg/mL,>32 µg/mL,93 µM
CCCCCCCC(=O)N[C@H](C(=O)NCC(=O)N[C@H]1CCNC(=O)[C@H]([C@@H](C)O)NC(=O)[C@H](CCN)NC(=O)[C@H](CCN)NC(=O)[C@H](CC(C)C)NC(=O)[C@@H](Cc2ccccc2)NC(=O)[C@H](CCN)NC1=O)[C@@H](C)O [Compound 49] (Octanoyl-TG[Dab][Dab][dF]L[Dab][Dab]T; lactam 3-C),>32 µg/mL,4 µg/mL,>32 µg/mL,>32 µg/mL,>32 µg/mL,>32 µg/mL,>32 µg/mL,163 µM
CCCCCCCC(=O)N[C@H](C(=O)N[C@H](CO)C(=O)N[C@H]1CCNC(=O)[C@H]([C@@H](C)O)NC(=O)[C@H](CCN)NC(=O)[C@H](CCN)NC(=O)[C@H](CC(C)C)NC(=O)[C@@H](Cc2ccccc2)NC(=O)[C@H](CCN)NC1=O)[C@@H](C)O [Compound 36] (Octanoyl-T[dS][Dab][Dab][dF]L[Dab][Dab]T; lactam 3-C),32 µg/mL,4 µg/mL,>32 µg/mL,>32 µg/mL,16 µg/mL,16 µg/mL,>32 µg/mL,213 µM
CCCCCCCC(=O)N[C@@H](CCN)C(=O)N[C@H](C(=O)N[C@H]1CCNC(=O)[C@H]([C@@H](C)O)NC(=O)[C@H](CCN)NC(=O)[C@H](CCN)NC(=O)[C@H](CC(C)C)NC(=O)[C@@H](Cc2ccccc2)NC(=O)[C@H](CCN)NC1=O)[C@@H](C)O [Compound 9] (Octanoyl-[Dab]T[Dab][Dab][dF]L[Dab][Dab]T; lactam 3-C),>32 µg/mL,>32 µg/mL,>32 µg/mL,>32 µg/mL,>32 µg/mL,32 µg/mL,>32 µg/mL,79 µM

# Now from value to molecule, other results behind:
MIC A. baumannii ATCC 19606 [1],MIC E. coli ATCC 25922 [2],MIC K. pneumoniae ATCC 13833 [3],MIC K. pneumoniae ATCC 700603 [4],MIC K. pneumoniae BAA 2146 [5],MIC P. aeruginosa ATTC 27853 [6],MIC S. aureus ATCC 25923 [7],Compound,CC50 at 24 h [8]
16 µg/mL,1 µg/mL,>32 µg/mL,4 µg/mL,4 µg/mL,4 µg/mL,>32 µg/mL,CCCCCCCC(=O)N[C@H](C(=O)N[C@H](CCCCN)C(=O)N[C@H]1CCNC(=O)[C@H]([C@@H](C)O)NC(=O)[C@H](CCN)NC(=O)[C@H](CCN)NC(=O)[C@H](CC(C)C)NC(=O)[C@@H](Cc2ccccc2)NC(=O)[C@H](CCN)NC1=O)[C@@H](C)O [Compound 43] (Octanoyl-T[dK][Dab][Dab][dF]L[Dab][Dab]T; lactam 3-C),> 300 µM
>32 µg/mL,4 µg/mL,>32 µg/mL,32 µg/mL,16 µg/mL,16 µg/mL,>32 µg/mL,CCCCCCCC(=O)N[C@H](C(=O)N[C@@H](Cc1c[nH]cn1)C(=O)N[C@H]1CCNC(=O)[C@H]([C@@H](C)O)NC(=O)[C@H](CCN)NC(=O)[C@H](CCN)NC(=O)[C@H](CC(C)C)NC(=O)[C@@H](Cc2ccccc2)NC(=O)[C@H](CCN)NC1=O)[C@@H](C)O [Compound 47] (Octanoyl-TH[Dab][Dab][dF]L[Dab][Dab]T; lactam 3-C),> 300 µM
4 µg/mL,2 µg/mL,4 µg/mL,4 µg/mL,4 µg/mL,16 µg/mL,>32 µg/mL,CCCCCCCC(=O)N[C@H](C(=O)N[C@H](Cc1c[nH]cn1)C(=O)N[C@H]1CCNC(=O)[C@H]([C@@H](C)O)NC(=O)[C@H](CCN)NC(=O)[C@H](CCN)NC(=O)[C@H](CC(C)C)NC(=O)[C@@H](Cc2ccccc2)NC(=O)[C@H](CCN)NC1=O)[C@@H](C)O [Compound 48] (Octanoyl-T[dH][Dab][Dab][dF]L[Dab][Dab]T; lactam 3-C),> 300 µM
16 µg/mL,1 µg/mL,32 µg/mL,4 µg/mL,1 µg/mL,4 µg/mL,>32 µg/mL,CCCCCCCC(=O)N[C@H](C(=O)N[C@H](CCCN)C(=O)N[C@H]1CCNC(=O)[C@H]([C@@H](C)O)NC(=O)[C@H](CCN)NC(=O)[C@H](CCN)NC(=O)[C@H](CC(C)C)NC(=O)[C@@H](Cc2ccccc2)NC(=O)[C@H](CCN)NC1=O)[C@@H](C)O [Compound 41] (Octanoyl-T[dOrn][Dab][Dab][dF]L[Dab][Dab]T; lactam 3-C),> 300 µM
>32 µg/mL,>32 µg/mL,>32 µg/mL,32 µg/mL,>32 µg/mL,>32 µg/mL,>32 µg/mL,CCCCCCCC(=O)N[C@H](C(=O)N[C@@H](Cc1c[nH]c2ccccc12)C(=O)N[C@H]1CCNC(=O)[C@H]([C@@H](C)O)NC(=O)[C@H](CCN)NC(=O)[C@H](CCN)NC(=O)[C@H](CC(C)C)NC(=O)[C@@H](Cc2ccccc2)NC(=O)[C@H](CCN)NC1=O)[C@@H](C)O [Compound 46] (Octanoyl-TW[Dab][Dab][dF]L[Dab][Dab]T; lactam 3-C),> 300 µM

# Reference: publication PMC6384738, “Structure-Function Studies of Polymyxin B Lipononapeptides” (Molecules, 2019)
